Reference: US20260144258A1, “CRYSTAL OF 2-(5-CYCLOPROPYL-3-(ETHYLSULFONYL)PYRIDIN-2-YL)-5-((TRIFLUOROMETHYL)SULFONYL)BENZO[D]OXAZOLE” (SUMITOMO CHEMICAL COMPANY, LIMITED, priority 2022, published 2026)

Experiments:
Assay type in all cases: in vivo
[1] = test system: cotton aphids (Aphis gossypii); assay: Test method 1: foliar spray on cucumber seedling infested with cotton aphids; conditions: 500 ppm, spray 10 mL/seedling on cucumber, cotton aphids all stages, after 5 days, 25° C.
Experimental: Next, an efficacy of the Type 1 crystal of Compound (1) on controlling harmful arthropods is shown by Test examples. The following tests were conducted at 25° C. Test compound is made to a formulation according to a similar method to that described in the Formulation example 1, and thereto is added water containing 0.03 v/v % of Shindain (registered trademark) to prepare a dilution containing a prescribed concentration of the test compound. Cucumber (Cucumis sativus) seedling (on the developmental stage of the second true leaf) is planted in a cup, and approximately 30 cotton aphids (Aphis gossypii) (all stages of life) are released onto the seedling. After one day, the dilutions are sprayed onto the seedling at a ratio of 10 mL/seedling. After 5 days, the number of the surviving insects is examined, and the controlling value is calculated by the following equation. […]

[2] = test system: common cutworms (Spodoptera litura); assay: Test method 2: sprayed cabbage leaf, common cutworm larvae; conditions: 120 h, spray 20 mL/seedling on cabbage, second instar larvae, after 5 days, 25° C., read-out: mortality of insects
Experimental: (§1) Next, an efficacy of the Type 1 crystal of Compound (1) on controlling harmful arthropods is shown by Test examples. The following tests were conducted at 25° C.
(§2) Test compound is made to a formulation according to a similar method to that described in the Formulation example 1, and thereto is added water containing 0.03 v/v % of Shindain (registered trademark) to prepare a dilution containing a prescribed concentration of the test compound.
(§3) Cabbage (Brassicae oleracea) seedling (on the developmental stage of the second to third true leaf) is planted in a cup, and the dilutions are sprayed onto the seedling at a ratio of 20 mL/seedling. Thereafter, the stem and leaf thereof are cut out and then are placed into a cup that is lined with filter paper. Five (5) commom cutworms (Spodoptera litura) at the second instar larval stage are released into the cup. After 5 days, the number of the surviving insects is counted, and the mortality of insects is calculated by the following equation.
Mortality (%)=(1−Number of surviving insects/5)×100

[3] = test system: diamondback moths (Plutella xylostella); assay: Test method 3: sprayed cabbage leaf, diamondback moth larvae; conditions: 120 h, spray 20 mL/seedling on cabbage, second instar larvae, after 5 days, 25° C., read-out: mortality of insects
Experimental: as §1, §2
as §3, with “with a” for “with”, “diamondback moths (Plutella xylostella)” for “commom cutworms (Spodoptera litura)”

[4] = test system: common house mosquitos (Culex pipiens pallens); assay: Test method 4: mosquito larvae released into dilution; conditions: 24 h, last instar larvae in dilution, after 1 day, 25° C., read-out: mortality of insects
Experimental: as §1
Test compound is made to a formulation according to a similar method to that described in the Formulation example 1, and thereto is added water to prepare a dilution containing a prescribed concentration of the test compound.
Into the dilution, 30 common house mosquitos (Culex pipiens pallens) at the last instar larval stage are released, and after 1 day, the state of the common house mosquito larvae is examined, and the mortality of insects is calculated by the following equation.
Mortality (%)=(Number of dead insects/Number of tested insects)×100

[5] = test system: brown planthoppers (Nilaparvata lugens); assay: Test method 5: sprayed rice seedling, brown planthopper larvae; conditions: 144 h, spray 10 mL/seedling on rice, third instar larvae, after 6 days, 25° C., read-out: mortality of insects
Experimental: as §1, §2
Rice (Oryza sativa) seedling (on the developmental stage of the second leaf) is planted in a cup, and the dilutions are sprayed onto the seedling at a ratio of 10 mL/seedling. Thereafter, twenty (20) brown planthoppers (Nilaparvata lugens) at the third instar larval stage are released into the cup. After 6 days, the number of the surviving insects is counted, and the mortality of insects is calculated by the following equation.
Mortality (%)=(1−Number of surviving insects/20)×100

[6] = test system: cotton aphids (Aphis gossypii); assay: Test method 6: sprayed cucumber seedling with artificial rainfall, cotton aphids; conditions: 1 ppm, spray 10 mL/seedling on cucumber, artificial rainfall 10 mm/hr for 1 hour, female adults released after one day, after 5 days, 25° C.
Experimental: Next, an efficacy of the Type 1 crystal of Compound (1) on controlling harmful arthropods is shown by Test examples. The following tests were conducted at 25° C. Test compound is made to a formulation according to a similar method to that described in the Formulation example 1, and thereto is added water containing 0.02 v/v % of Shindain (registered trademark) to prepare a dilution containing a prescribed concentration of the test compound. Only the second true leaves of Cucumber (Cucumis sativus) seedling (on the developmental stage of the third true leaf) are retained, and the other leaves are cut off, and the dilutions are sprayed onto the seedling at a ratio of 10 mL/seedling. After the dilution, which is treated, is dried, rain is given to the cucumber seedling with an artificial rainfall device at 10 mm/hr for 1 hour. After one day, 10 cotton aphids (Aphis gossypii) female adults are released onto the seedling. After 5 days, the number of the surviving insects is examined and the controlling value is calculated by the following equation. […]

[7] = test system: Argentine ant (Linepithema humile); assay: Test method 7: treated filter paper with sugar water, Argentine ant workers; conditions: 12.5 ppm, 0.7 ml on filter paper, after 6 days, 25° C.
Experimental: as §1
(§4) Test compound is made to a formulation according to a similar method to that described in the Formulation example 1, and thereto is added 1.8 g of sucrose, followed by adding 3% sugar water to prepare a dilution containing a prescribed concentration of the test compound.
(§5) A filter paper having a diameter of 5.5 cm is spread on the bottom of the cup, and then 0.7 ml of the dilutons are added dropwise to the filter paper, and ten (10) Argentine ant (Linepithema humile) workers are released into the cup, and the cup is covered with the lid. After 6 days, the number of the dead and distressed individuals of Argentine ant workers are counted, and the ratio of distressed and dead insects (%) is calculated by the following equation.
(§6) Here the dead individual is one whose behavior has completely stopped, and a distressed individual is one that cannot stand up when placed on its back and also cannot walk.

[8] = test system: German cockroach (Blattella germanica); assay: Test method 8: treated filter paper with sugar water, German cockroach male adults; conditions: 0.8 ppm, 0.7 ml on filter paper, after 5 days, 25° C.
Experimental: as §1, §4
as §5, with “dilutions” for “dilutons”, “five (5) German cockroach (Blattella germanica) male adults” for “ten (10) Argentine ant (Linepithema humile) workers”, “5” for “6”, “German cockroach male adults” for “Argentine ant workers”
as §6

| Structure (SMILES) | controlling value [1] [%] | mortality at 500 ppm [2] [%] | mortality at 500 ppm [3] [%] | mortality at 3.5 ppm [4] [%] | mortality at 500 ppm [5] [%] | controlling value [6] [%] | ratio of distressed and dead insects [7] [%] | ratio of distressed and dead insects [8] [%] |
| --- | --- | --- | --- | --- | --- | --- | --- | --- |
| CCS(=O)(=O)c1cc(C2CC2)cnc1-c1nc2cc(S(=O)(=O)C(F)(F)F)ccc2o1 [Type 1 crystal of Compound (1), 2-(5-cyclopropyl-3-(ethylsulfonyl)pyridin-2-yl)-5-((trifluoromethyl)sulfonyl)benzo[d]oxazole] | ≥ 90 | ≥ 80 | ≥ 80 | ≥ 90 | ≥ 90 | 40.5 | 100 | 100 |
| CCS(=O)(=O)c1cc(C2CC2)cnc1-c1nc2cc(S(=O)(=O)C(F)(F)F)ccc2o1 [amorphous of Compound (1), 2-(5-cyclopropyl-3-(ethylsulfonyl)pyridin-2-yl)-5-((trifluoromethyl)sulfonyl)benzo[d]oxazole] | – | – | – | – | – | – | 35 | 30 |
